Assay [1] deals with panel of 144 protein kinases. The assay is described as follows: SelectScreen panel of 144 protein kinases. The format is biochemical. The following applies: incl. PKC isoforms, OSR1, SPAK, WNK.
For the next assay, the system named is mice. The experiment in a line: KA induced ongoing SE, EEG, treatment with DZ or DZ/Compound A 2 h after KA. It is filed as in vivo. The following applies: given 2 h after KA. As for the experimental part: EEG recordings and analysis. WT C57Bl/6J adult male mice (12 weeks) were anesthetized with isofluorane and implanted with EEG/EMG electrodes and allowed to recover for 7 days prior to experimentation. […] 2 h following KA administration mice were injected with a saturating concentration of diazepam (DZ) 10 mg/kg (IP) and recordings were extended for a further 60 min. […] LabChart 8 software was used for data analysis. Epileptiform activity was identified by changes in the amplitude of electrographic activity characterized by consistent changes in the power of the Fast Fourier transform (FFT) of the EEG and abnormal activity characterized by periods of rhythmic spiking lasting longer than 30 s (Moore et al., 2017, supra; Silayeva et al., 2015, supra; Sivakumaran et al., J. Neurosci. 35, 8291-8296 (2015)).
To evaluate the potential of KCC2 activators to terminate ongoing SE, the KA model described above was employed. Mice were injected with KA (20 mg/Kg; IP). […] Spectral data were then subjected to FFT and the total EEG power between 1-100 Hz of the 2 h following KA treatment (pre-drug) and 30 min following their injection (post-drug) were compared (FIG. 6B). In mice treated with DZ alone variable effects were observed, from large increases to modest reductions in EEG power, but these effects were not significant (FIG. 6C; pre=1.1±0.2×10^−6, post=4.4±7.4×10^−7 μV^2, p=0.214, n=13-14 mice). […]

As for `C[C@@H]1CN(c2nc3c(c(Nc4ccc(C5CCCCC5)cc4)n2)COC3)CCO1` [Compound A, (R)-N-(4-cyclohexylphenyl)-2-(2-methylmorpholino)-5,7-dihydrofuro[3,4-d]pyrimidin-4-amine], in assay [1], the “activity of a panel of 144 protein kinases” value is given as “did not modify the activity”. The “mice insensitive to the effects of DZ on EEG power” value with mice is recorded as “abolished”. As to `CN1C(=O)CN=C(c2ccccc2)c2cc(Cl)ccc21` [DZ, diazepam, reference compound], the “mice insensitive to the effects of DZ on EEG power” value in the assay on mice is reported as 62%.

Values taken from US20250281500A1, “FUSED AMINO PYRIMIDINE COMPOUNDS AND PRIDOPIDINE FOR TREATMENT OF HUNTINGTON’S DISEASE” (Ovid Therapeutics Inc., priority 2024, published 2025).
